Consider two molecules from PMC12635975, “Peptide-Based Fluorescent Biosensing System for the Detection of the Melanoma Biomarker S100B” (Bioconjugate Chemistry, 2025).

Experiment [1] addresses T1, S100B (Homo sapiens, UniProt P04271).
T1 construct: purchased Abbexa abx060130
T1 sequence (P04271 1-92): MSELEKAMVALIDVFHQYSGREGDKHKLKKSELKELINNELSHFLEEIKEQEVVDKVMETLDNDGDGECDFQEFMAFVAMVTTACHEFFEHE
To be noted: ref literature (citation numbers not shown in text); read-out: binding affinity K d; cited from earlier work. From the text:
(§1) It interacts with S100B through a combination of hydrophobic and electrostatic interactions, stabilizing the protein structure and enhancing calcium-ion-binding affinity. […] By integrating TRTK12 into advanced optical biosensing systems, ...

Experiment [2] deals with other S100 proteins. The note with it: unlike other peptides; ref literature (citation numbers not shown in text); cited from earlier work.
Description: as §1

Experiment [3] deals with fluorescently labeled peptide-nucleic acid (PNA) beacon with the peptide TRTK12 as the biorecognition element. The experiment in a line: other fluorescence titration; beacon fixed at 500 nM, S100B 0-100 nM; donor (5-FAM) emission of the FAM/Dabcyl FRET beacon, excitation 499 nm; 50 mM Tris-HCl pH 7.0, 240 mM NaCl, 20 mM CaCl2; 35 °C; 60 min incubation; two-site binding model fitted to the calibration curve.

Consider TRTKIDWNKILS [TRTK12], for which the Kd in experiment [1] was around 260 nM. In addition, the cross-reactivity result in experiment [2] is reported as “minimal cross-reactivity with other S100 proteins”.

B1: S100B protein (natural protein)
chain: T1 sequence (P04271 1-92)
Turning to B1, in experiment [3], the half-saturation constant of the high-affinity site (two-site binding model) amounted to 0.145 nM and the half-saturation constant of the lower-affinity site (two-site binding model) turned out to be 364 nM.
